Assay results as given in US10869871B2, “Compositions and methods of modulating short-chain dehydrogenase activity” (CASE WESTERN RESERVE UNIVERSITY, priority 2013, dated 2020).

Key:
[1] = Survival of 11Gy irradiated C57BL/6J mice receiving bone marrow allograft; format: in vivo, mouse; conditions: 5 × 10^5 donor cells, 5 mg/kg IP bid
Text: The experimental design is depicted in FIG. 50.
Under the conditions of the mouse colony during this study, control mice receiving 100,000-500,000 cells are all dead between days 4-13 of study. […] Such activity would be of particular utility in settings, such as transplantation with umbilical cord stem cells, in which donor cell numbers are limited.

[2] = tested on: blood and bone marrow; assay: Blood and bone marrow recovery after transplant of 500,000 donor marrow cells; format: in vivo, mouse
[3] = tested on: 15-PGDH-luciferase fusion reporter in V9m, LS174T and V503 colon cancer cell lines; assay: 15-PGDH-luciferase fusion reporter induction in colon cancer cell lines; format: cell-based; conditions: V9m, LS174T, V503; relative to DMSO
[4] = tested on: bone marrow; assay: Bone marrow analysis of C57BL/6J mice treated IP; format: in vivo, mouse; conditions: IP 5 mg/kg or 20 mg/kg
Text: FIGS. […] Experimental conditions are noted on the figure.

[5] = Survival of mice after whole body irradiation; format: in vivo, mouse
[6] = 21 day toxicity study in FVB mice (daily weights); format: in vivo, mouse; conditions: 5 mg/kg IP twice daily for 21 days

For CCCC[S+]([O-])c1sc2nc(-c3cccs3)cc(-c3ccccc3)c2c1N (stereo not shown) [SW033291, 2-(butylsulfinyl)-4-phenyl-6-(thiophen-2-yl)thieno[2,3-b]pyridin-3-amine], the “number of surviving mice” value ([1]; Day 9) was 2, the “number of surviving mice” value ([1]; Day 10) was 2 and the “number of surviving mice” value ([1]; Day 11) was 2. The “number of surviving mice” value ([1]; Day 12) was 2, the “number of surviving mice” value ([1]; Day 13) was 2 and the “number of surviving mice” value ([1]; Day 19) was 2. The “total platelet count versus control” value ([2]; day 5 after transplant) was “significantly higher total platelet count”, the “total white count versus control” value ([2]; day 5 after transplant) was “significantly higher total white count” and the platelets ([2]; day 8 after transplant) was 77,000. For the same molecule, the neutrophils ([2]; day 12 after transplant) was 332, the neutrophils ([2]; day 18 after transplant) was 835 and the “luciferase activity of 15-PGDH luciferase fusion cells” value [3] was “increase luciferase activity”. The “percent of Sca1+/c-Kit+ lineage negative (SKL) cells” value [4] was “unchanged”, the “number of mice surviving” value ([5]; 7 Gy, 5 mg/kg IP daily for 7 doses, Day 0) was 3 and the “number of mice surviving” value ([5]; 7 Gy, 5 mg/kg IP daily for 7 doses, Day 6) was 3. The “number of mice surviving” value ([5]; 7 Gy, 5 mg/kg IP daily for 7 doses, Day 7) was 3, the “number of mice surviving” value ([5]; 7 Gy, 5 mg/kg IP daily for 7 doses, Day 8) was 3 and the “number of mice surviving” value ([5]; 7 Gy, 5 mg/kg IP daily for 7 doses, Day 9) was 3. The “number of mice surviving” value ([5]; 7 Gy, 5 mg/kg IP daily for 7 doses, Day 10) was 3, the “number of mice surviving” value ([5]; 7 Gy, 5 mg/kg IP daily for 7 doses, Day 11) was 3 and the “number of mice surviving” value ([5]; 7 Gy, 5 mg/kg IP daily for 7 doses, Day 12) was 3. For the same molecule, the “number of mice surviving” value ([5]; 7 Gy, 5 mg/kg IP daily for 7 doses, Day 13) was 3, the “number of mice surviving” value ([5]; 7 Gy, 5 mg/kg IP daily for 7 doses, Day 14) was 3 and the “number of mice surviving” value ([5]; 7 Gy, 5 mg/kg IP daily for 7 doses, Day 15) was 3. The appearance of mice ([5]; 7 Gy, 5 mg/kg IP daily for 7 doses, Day 25 (cell reads Looks Healthy)) was “Healthy”, the “number of mice surviving” value ([5]; 9 Gy, 5 mg/kg IP daily for 7 doses, Day 0) was 3 and the “number of mice surviving” value ([5]; 9 Gy, 5 mg/kg IP daily for 7 doses, Day 6) was 3. For the same molecule, the “number of mice surviving” value ([5]; 9 Gy, 5 mg/kg IP daily for 7 doses, Day 7) was 3, the “number of mice surviving” value ([5]; 9 Gy, 5 mg/kg IP daily for 7 doses, Day 8) was 3 and the “number of mice surviving” value ([5]; 9 Gy, 5 mg/kg IP daily for 7 doses, Day 9) was 3. For the same molecule, the “number of mice surviving” value ([5]; 9 Gy, 5 mg/kg IP daily for 7 doses, Day 10) was 3, the “number of mice surviving” value ([5]; 9 Gy, 5 mg/kg IP daily for 7 doses, Day 11) was 3 and the “number of mice surviving” value ([5]; 9 Gy, 5 mg/kg IP daily for 7 doses, Day 12) was 2. For the same molecule, the “number of mice surviving” value ([5]; 9 Gy, 5 mg/kg IP daily for 7 doses, Day 13) was 2, the “number of mice surviving” value ([5]; 9 Gy, 5 mg/kg IP daily for 7 doses, Day 14) was 1 and the “number of mice surviving” value ([5]; 9 Gy, 5 mg/kg IP daily for 7 doses, Day 15) was 0. For the same molecule, the “number of mice surviving” value ([5]; 11 Gy, 5 mg/kg IP 1 dose/daily for 7 days (Table 7), Day 0) was 3, the “number of mice surviving” value ([5]; 11 Gy, 5 mg/kg IP 1 dose/daily for 7 days (Table 7), Day 5) was 3 and the “number of mice surviving” value ([5]; 11 Gy, 5 mg/kg IP 1 dose/daily for 7 days (Table 7), Day 6) was 3. For the same molecule, the “number of mice surviving” value ([5]; 11 Gy, 5 mg/kg IP 1 dose/daily for 7 days (Table 7), Day 7) was 3, the “number of mice surviving” value ([5]; 11 Gy, 5 mg/kg IP 1 dose/daily for 7 days (Table 7), Day 8) was 2 and the “number of mice surviving” value ([5]; 11 Gy, 5 mg/kg IP 1 dose/daily for 7 days (Table 7), Day 9) was 1. The “number of mice surviving” value ([5]; 11 Gy, 5 mg/kg IP 1 dose/daily for 7 days (Table 7), Day 10) was 0, the “number of mice surviving” value ([5]; 11 Gy, 5 mg/kg IP 1 dose/daily, continuous every day, Day 0) was 3 and the “number of mice surviving” value ([5]; 11 Gy, 5 mg/kg IP 1 dose/daily, continuous every day, Day 5) was 3. For the same molecule, the “number of mice surviving” value ([5]; 11 Gy, 5 mg/kg IP 1 dose/daily, continuous every day, Day 6) was 3, the “number of mice surviving” value ([5]; 11 Gy, 5 mg/kg IP 1 dose/daily, continuous every day, Day 7) was 3 and the “number of mice surviving” value ([5]; 11 Gy, 5 mg/kg IP 1 dose/daily, continuous every day, Day 8) was 3. For the same molecule, the “number of mice surviving” value ([5]; 11 Gy, 5 mg/kg IP 1 dose/daily, continuous every day, Day 9) was 2, the “number of mice surviving” value ([5]; 11 Gy, 5 mg/kg IP 1 dose/daily, continuous every day, Day 10) was 0 and the “number of mice surviving” value ([5]; 11 Gy, 5 mg/kg IP 2 dose daily for 7 days, Day 0) was 3. The “number of mice surviving” value ([5]; 11 Gy, 5 mg/kg IP 2 dose daily for 7 days, Day 5) was 3, the “number of mice surviving” value ([5]; 11 Gy, 5 mg/kg IP 2 dose daily for 7 days, Day 6) was 3 and the “number of mice surviving” value ([5]; 11 Gy, 5 mg/kg IP 2 dose daily for 7 days, Day 7) was 3. For the same molecule, the “number of mice surviving” value ([5]; 11 Gy, 5 mg/kg IP 2 dose daily for 7 days, Day 8) was 3, the “number of mice surviving” value ([5]; 11 Gy, 5 mg/kg IP 2 dose daily for 7 days, Day 9) was 2 and the “number of mice surviving” value ([5]; 11 Gy, 5 mg/kg IP 2 dose daily for 7 days, Day 10) was 0. For the same molecule, the “longer survival versus vehicle” value ([5]; 11Gy, 5 mg/kg IP daily for 7 doses) was 48 h, the “number of mice surviving” value ([5]; 11 Gy, 5 mg/kg IP daily for 7 doses (Table 6), Day 0) was 3 and the “number of mice surviving” value ([5]; 11 Gy, 5 mg/kg IP daily for 7 doses (Table 6), Day 5) was 3. For the same molecule, the “number of mice surviving” value ([5]; 11 Gy, 5 mg/kg IP daily for 7 doses (Table 6), Day 6) was 3, the “number of mice surviving” value ([5]; 11 Gy, 5 mg/kg IP daily for 7 doses (Table 6), Day 7) was 3 and the “number of mice surviving” value ([5]; 11 Gy, 5 mg/kg IP daily for 7 doses (Table 6), Day 8) was 3. For the same molecule, the “number of mice surviving” value ([5]; 11 Gy, 5 mg/kg IP daily for 7 doses (Table 6), Day 9) was 2, the “number of mice surviving” value ([5]; 11 Gy, 5 mg/kg IP daily for 7 doses (Table 6), Day 10) was 0 and the “longer survival on average versus vehicle” value ([5]; 11Gy, any of the 5 mg/kg dosing schedules) was 1 to 2 days. For the same molecule, the “mouse weight during treatment” value [6] was “no evidence for SW033291 reducing mouse weight”.
